Results reported in ChEMBL document CHEMBL3580594, “Synthesis and biological evaluation of 4-substituted fluoronucleoside analogs for the treatment of hepatitis B virus infection” (J Med Chem, 2015).

What was measured:
Hepatitis B virus [1] = assay: Antiviral activity against Hepatitis B virus in HepG2.CW cells assessed as inhibition of viral DNA replication at 1 uM after 9 days by real-time FQ-PCR analysis; assay type: functional; conditions: 216 h
[2] = Cytotoxicity against human HepG2.2.15 cells by MTT assay; assay type: cell-based, HepG2 2.2.15
Hepatitis B virus [3] = assay: Antiviral activity against Hepatitis B virus in HepG2.2.15 cells assessed as inhibition of intracellular/extracellular viral DNA replication after 3 to 9 days by real-time FQ-PCR analysis; assay type: functional, organism-based; conditions: HepG2 2.2.15
Mus musculus [4] = assay: Acute toxicity in KM mouse assessed as morbidity at 3 g/kg, iv suspended in 0.5% CMC/Na solution after 14 days; assay type: organism-based; conditions: in vivo, 3000 mg/kg, 336 h
Mus musculus [5] = assay: Acute toxicity in KM mouse assessed as weight loss at 3 g/kg, iv suspended in 0.5% CMC/Na solution after 14 days; assay type: organism-based; conditions: in vivo, 3000 mg/kg, 336 h
Mus musculus [6] = assay: Toxicity in KM mouse assessed as peripheral WBC number in blood per liter at 20 mg/kg, po single dose after 48 hrs (reference value: 11.10 x 2.69/L x 10^-9 cells); assay type: organism-based; conditions: in vivo
Mus musculus [7] = assay: Toxicity in KM mouse assessed as peripheral WBC number in blood per liter at 40 mg/kg, po single dose after 48 hrs (reference value: 11.10 x 2.69/L x 10^-9); assay type: organism-based; conditions: in vivo
Mus musculus [8] = assay: Toxicity in KM mouse assessed as micronucleus frequency in bone marrow polychromatic erythrocyte at 20 mg/kg, po single dose after 48 hrs (reference value: 2.20 +/- 0.84 %); assay type: organism-based; conditions: in vivo
Mus musculus [9] = assay: Toxicity in KM mouse assessed as micronucleus frequency in bone marrow polychromatic erythrocyte at 40 mg/kg, po single dose after 48 hrs (reference value: 2.20 +/- 0.84 %); assay type: organism-based; conditions: in vivo
Mus musculus [10] = assay: Toxicity in KM mouse assessed as peripheral WBC number in blood per liter at 5 mg/kg/day, po 5 doses (reference value: 7.47 +/- 33.77 /L x 10^-9 cells); assay type: organism-based; conditions: in vivo
Mus musculus [11] = assay: Toxicity in KM mouse assessed as peripheral WBC number in blood per liter at 20 mg/kg/day, po 5 doses (reference value: 7.47 +/- 33.77 /L x 10^-9 cells); assay type: organism-based; conditions: in vivo
Mus musculus [12] = assay: Toxicity in KM mouse assessed as micronucleus frequency in bone marrow polychromatic erythrocyte at 10 mg/kg, po single dose after 48 hrs (reference value: 1.20 +/- 0.45 %); assay type: organism-based; conditions: in vivo
Mus musculus [13] = assay: Toxicity in KM mouse assessed as micronucleus frequency in bone marrow polychromatic erythrocyte at 20 mg/kg, po single dose after 48 hrs (reference value: 1.20 +/- 0.45 %); assay type: organism-based; conditions: in vivo
Hepatitis B virus [14] = assay: Antiviral activity against Hepatitis B virus in HepG2.2.15 cells assessed as inhibition of intracellular viral DNA replication at 1 uM after 3 days by real-time FQ-PCR analysis; assay type: functional; conditions: HepG2 2.2.15, 72 h
Hepatitis B virus [15] = assay: Antiviral activity against Hepatitis B virus in HepG2.2.15 cells assessed as inhibition of intracellular viral DNA replication at 5 uM after 3 days by real-time FQ-PCR analysis; assay type: functional; conditions: HepG2 2.2.15, 72 h
Hepatitis B virus [16] = assay: Antiviral activity against Hepatitis B virus in HepG2.2.15 cells assessed as inhibition of intracellular viral DNA replication at 5 uM after 6 days by real-time FQ-PCR analysis; assay type: functional; conditions: HepG2 2.2.15, 144 h
Hepatitis B virus [17] = assay: Antiviral activity against Hepatitis B virus in HepG2.2.15 cells assessed as inhibition of extracellular viral DNA replication at 1 uM after 3 days by real-time FQ-PCR analysis; assay type: functional; conditions: HepG2 2.2.15, 72 h
Hepatitis B virus [18] = assay: Antiviral activity against Hepatitis B virus in HepG2.2.15 cells assessed as inhibition of extracellular viral DNA replication at 1 uM after 6 days by real-time FQ-PCR analysis; assay type: functional; conditions: HepG2 2.2.15, 144 h
Hepatitis B virus [19] = assay: Antiviral activity against Hepatitis B virus in HepG2.2.15 cells assessed as inhibition of extracellular viral DNA replication at 5 uM after 6 days by real-time FQ-PCR analysis; assay type: functional; conditions: HepG2 2.2.15, 144 h
Hepatitis B virus [20] = assay: Antiviral activity against Hepatitis B virus in HepG2.2.15 cells assessed as inhibition of extracellular viral DNA replication at 0.2 uM after 9 days by real-time FQ-PCR analysis; assay type: functional; conditions: HepG2 2.2.15, 216 h
Duck hepatitis B virus [21] = assay: Antiviral activity against duck Hepatitis B virus infected in po dosed duck assessed as inhibition of viral DNA replication in serum; assay type: functional, organism-based
Duck hepatitis B virus [22] = assay: Antiviral activity against duck Hepatitis B virus infected in duck assessed as inhibition of viral DNA replication in liver at 0.04 to 20 mg/kg, po; assay type: functional, organism-based; conditions: TDE = time-dependent effect
Duck hepatitis B virus [23] = assay: Antiviral activity against duck Hepatitis B virus infected in duck assessed as inhibition of viral DNA replication in serum at 0.04 mg/kg/day, po treatment initiated at day 5 after infection relative to control; assay type: functional; conditions: 120 h
Duck hepatitis B virus [24] = assay: Antiviral activity against duck Hepatitis B virus infected in duck assessed as inhibition of viral DNA replication in serum at 1 mg/kg/day, po treatment initiated at day 5 after infection relative to control; assay type: functional; conditions: 120 h
Duck hepatitis B virus [25] = assay: Antiviral activity against duck Hepatitis B virus infected in duck assessed as inhibition of viral DNA replication in serum at 0.04 mg/kg/day, po treatment initiated at day 10 after infection relative to control; assay type: functional; conditions: 240 h
Duck hepatitis B virus [26] = assay: Antiviral activity against duck Hepatitis B virus infected in duck assessed as inhibition of viral DNA replication in serum at 0.2 mg/kg/day, po treatment initiated at day 10 after infection relative to control; assay type: functional; conditions: 240 h
Duck hepatitis B virus [27] = assay: Antiviral activity against duck Hepatitis B virus infected in duck assessed as inhibition of viral DNA replication in liver at 0.04 mg/kg/day, po treatment initiated at day 5 after infection relative to control; assay type: functional; conditions: 120 h
Duck hepatitis B virus [28] = assay: Antiviral activity against duck Hepatitis B virus infected in duck assessed as inhibition of viral DNA replication in liver at 0.04 mg/kg/day, po treatment initiated at day 10 after infection relative to control; assay type: functional; conditions: 240 h
Duck hepatitis B virus [29] = assay: Antiviral activity against duck Hepatitis B virus infected in duck assessed as inhibition of viral DNA replication in liver at 1 mg/kg/day, po measured after 3 days of treatment withdrawal; assay type: functional; conditions: 72 h
Rattus norvegicus [30] = assay: In vivo drug metabolism in rat plasma sample assessed as 1-((2R,3S,4R,5R)-5-azido-3-fluoro-4-hydroxy-5-(hydroxymethyl)tetrahydrofuran-2-yl)-4-(2-hydroxycyclopropylamino)pyrimidin-2(1H)-one formation by LC-MS/MS analysis; assay type: ADME, organism-based
Rattus norvegicus [31] = assay: In vivo drug metabolism in rat bile sample assessed as 1-((2R,3S,4R,5R)-5-azido-3-fluoro-4-hydroxy-5-(hydroxymethyl)tetrahydrofuran-2-yl)-4-(2-hydroxycyclopropylamino)pyrimidin-2(1H)-one formation by LC-MS/MS analysis; assay type: ADME, organism-based
Rattus norvegicus [32] = assay: In vivo drug metabolism in rat urine sample assessed as 1-((2R,3S,4R,5R)-5-azido-3-fluoro-4-hydroxy-5-(hydroxymethyl)tetrahydrofuran-2-yl)-4-(2-hydroxycyclopropylamino)pyrimidin-2(1H)-one formation by LC-MS/MS analysis; assay type: ADME, organism-based
Rattus norvegicus [33] = species on record: Rattus norvegicus; assay: Drug metabolism in rat urine sample assessed as 4-amino-1-((2R,3S,4R,5R)-5-azido-3-fluoro-4-hydroxy-5-(hydroxymethyl)tetrahydrofuran-2-yl)pyrimidin-2(1H)-one formation by NMR spectrum; assay type: ADME, organism-based; conditions: in vivo

[N-]=[N+]=N[C@]1(CO)O[C@@H](n2ccc(NC3CC3)nc2=O)[C@@H](F)[C@@H]1O
inhibition at 1 µM (Hepatitis B virus [1]): 86.6%
CC50 [2]: 391 µM
inhibition (Hepatitis B virus [3]): Dose-dependent effect
Activity (Mus musculus [4]): Non-toxic
Activity (Mus musculus [5]): Non-toxic
Activity (Mus musculus [6]): 8.84 ×10⁹ /L
Activity (Mus musculus [7]): 9.13 ×10⁹ /L
Activity (Mus musculus [8]): 1.6%
Activity (Mus musculus [9]): 1.4%
Activity (Mus musculus [10]): 6.05 ×10⁹ /L
Activity (Mus musculus [11]): 6.53 ×10⁹ /L
Activity (Mus musculus [12]): 1.4%
Activity (Mus musculus [13]): 2.8%
inhibition at 1 µM (Hepatitis B virus [14]): 39.2%
inhibition at 5 µM (Hepatitis B virus [15]): 46.2%
inhibition at 5 µM (Hepatitis B virus [16]): 53%
inhibition at 1 µM (Hepatitis B virus [17]): 54%
inhibition at 1 µM (Hepatitis B virus [18]): 76.7%
inhibition at 5 µM (Hepatitis B virus [19]): 84%
inhibition at 0.2 µM (Hepatitis B virus [20]): 52.1%
inhibition (Duck hepatitis B virus [21]): Dose-dependent effect
inhibition (Duck hepatitis B virus [22]): tde
inhibition in vivo at 0.04 mg/kg/day (Duck hepatitis B virus [23]): 48.1%
inhibition in vivo at 1 mg/kg/day (Duck hepatitis B virus [24]): 71.9%
inhibition in vivo at 0.04 mg/kg/day (Duck hepatitis B virus [25]): 43.4%
inhibition in vivo at 0.2 mg/kg/day (Duck hepatitis B virus [26]): 69.5%
inhibition in vivo at 0.04 mg/kg/day (Duck hepatitis B virus [27]): 34.8%
inhibition in vivo at 0.04 mg/kg/day (Duck hepatitis B virus [28]): 62.8%
inhibition in vivo at 1 mg/kg/day (Duck hepatitis B virus [29]): 76.1%
Drug metabolism (Rattus norvegicus [30]): metabolite_detected
Drug metabolism (Rattus norvegicus [31]): metabolite_detected
Drug metabolism (Rattus norvegicus [32]): metabolite_detected
Drug metabolism (Rattus norvegicus [33]): metabolite_detected
